Assay results taken from patent US20110294890A1, “Neramexane for the treatment or prevention of inner ear disorders” (MERZ PHARMA GmbH & CO. KGaA, priority 2010, published 2011).

Tested on: subjects with subjective tinnitus of at least moderate severity
Assay: Double blind placebo controlled Phase III clinical trial of neramexane for treatment of tinnitus (TBF-12 total score)
Format: in vivo, human
Conditions: for Change in the TBF-12 total score from baseline to Week 17/EOT, LSmean: 50/75 mg/d, mean adjusted for covariates (ANCOVA); for Change in the TBF-12 total score from baseline to Week 17/EOT, LSmean / Change in the TBF-12 total score from baseline to Week 17/EOT, Mean change (SD): 17 weeks; for Change in the TBF-12 total score from baseline to Week 17/EOT, LSmean / Change in the TBF-12 total score from baseline to Week 17/EOT, Mean change (SD) / Comparison between treatment groups, LSmean (ner − pla), change in TBF-12 total score: FAS-LOCF; for Change in the TBF-12 total score from baseline to Week 17/EOT, Mean change (SD): neramexane mesylate 50/75 mg/d by body weight; for Comparison between treatment groups, LSmean (ner − pla), change in TBF-12 total score: estimated difference Neramexane − Placebo from ANCOVA
Method: The objective of this clinical trial was to assess the efficacy of neramexane as a treatment for tinnitus. The primary objective of this 17 weeks double-blind, randomized placebo-controlled study was to compare the efficacy, tolerability and safety of neramexane mesylate at two different, weight-adapted dosages (50 or 75 mg/d) with placebo in subjects with subjective tinnitus of at least moderate severity.
In a double-blind, multicenter, randomized, placebo-controlled, parallel-group study, the efficacy of neramexane in subjects suffering from tinnitus of at least moderate severity was assessed. A total of 411 patients, who fulfilled particular inclusion criteria and met none of particular exclusion criteria, were randomized to one of two double-blind treatment groups (neramexane mesylate 50 or 75 mg/d depending on body weight, or placebo).
Subjects were treated for 17 weeks with neramexane or placebo including a four- resp. five-week up-titration period, depending on study drug dose, followed by 30 to 35 days treatment-free observational period. Alternatively to treatment-free observational period, subjects could immediately at Week 17 start with a one-year open label treatment study.
Main inclusion criteria were: • Diagnosis of “subjective tinnitus” • Tinnitus duration of at least 3 months and less or equal to 12 months (subacute tinnitus) • Persistent, uni- or bilateral tinnitus • THI-12≧9 (=at least moderate tinnitus severity) • Hospital Anxiety and Depression (HADS) subscores for depression ≦10 and for anxiety ≦10
Main exclusion criteria were: • Intermittent or pulsatile tinnitus • Tinnitus as a concomitant symptom of an otological/neurological disease • Concomitant tinnitus treatment • Application for a pension/retirement pay or granted pension/retirement because of tinnitus.
Patients with a target daily dose of 50 mg neramexane mesylate (<90 kg body weight) were to reach steady state after four weeks, patients with a target total daily dose of 75 mg neramexane mesylate (≧90 kg body weight) were to reach steady state after five weeks of treatment. For patients who experienced dose limiting adverse events with the 75 mg dose, the dosage was reduced by switching the patient to 50 mg/day. Patients unable to tolerate a minimum dosage of 50 mg/day discontinued.
Patient eligibility for the study was evaluated via a check of inclusion/exclusion criteria. The subject completed a Tinnitus-Beeinträchtigungs-Fragebogen (TBF-12=Tinnitus. Handicap Inventory (THI-12)) (i.e., a 12-item modified and validated version (Greimel K V et al., Tinnitus-Beeinträchtigungs-Fragebogen (TBF-12). Manual. Frankfurt am Main: Swets & Zeitlinger B. V.; 2000) of the 25-item Tinnitus Handicap Inventory or THI (Newman C W, et al. Development of the Tinnitus Handicap Inventory. Arch Otolaryngol Head Neck Surg 1996; 122(2): 143-148; Newman C W, et al. Psychometric adequacy of the Tinnitus Handicap Inventory (THI) for evaluating treatment outcome. J Am Acad Audiol 1998; 9(2): 153-160.)). The TBF-12 items can be grouped in 2 factorial scores: an emotional-cognitive and a functional-communicational factor. At Visit 1. patients also completed a Tinnitus Rating Scale (TRS, Likert scores on Tinnitus Loudness, Tinnitus Impact on Life, and Tinnitus Annoyance), and the Hospital Anxiety and Depression Scale Audiology/psychoacoustic measurements were performed unless results from previous examinations performed no more than one year prior to Screening were available.
Visit 7 (Week 17, end of treatment (EOT)). This visit occurred at the end of the 12-week fixed-dose double-blind treatment period. This visit was also to be performed for patients who discontinued prematurely. The subject was asked about adverse events and changes in concomitant medication/disease, which changes are documented. A clinical laboratory evaluation was performed as well as ECG and physical examination (including body weight). Blood samples were collected in order to determine neramexane concentration. […]

SMILES: CC1(C)CC(C)(C)CC(C)(N)C1 [Neramexane, 1-amino-1,3,3,5,5-pentamethylcyclohexane]
- Change in the TBF-12 total score from baseline to Week 17/EOT, LSmean (Females, N=74): −3.8
- Change in the TBF-12 total score from baseline to Week 17/EOT, Mean change (SD) (Females, N=74): −3.1 (4.2)
- Comparison between treatment groups, LSmean (ner − pla), change in TBF-12 total score (Females, P-value 0.0122): −1.7
- Change in the TBF-12 total score from baseline to Week 17/EOT, LSmean (Total population, N=203): −3.0
- Change in the TBF-12 total score from baseline to Week 17/EOT, Mean change (SD) (Total population, N=203): −2.5 (4.3)
- Comparison between treatment groups, LSmean (ner − pla), change in TBF-12 total score (Total population, P-value 0.1997): −0.5
- Improvement for the treatment of tinnitus in subgroups of women (women 26 to 65 or 46 to 65 years of age, and/or free from clinical signs of depression (HADS-D 7 or less)): an improvement
- Improvement for the treatment of tinnitus in women (TBF-12 total score) (women, compared to the effect found for the total patient population): statistically significant improvement
